We go through one molecule from ChEMBL document CHEMBL5113538, “Discovery of Novel Allosteric EGFR L858R Inhibitors for the Treatment of Non-Small-Cell Lung Cancer as a Single Agent or in Combination with Osimertinib” (J Med Chem, 2022).

The target in one data set is D(2) dopamine receptor (Homo sapiens, UniProt P14416). Briefly: Inhibition of dopamine D2 receptor (unknown origin) at 10 uM relative to control.
Data set [1] has as its target T1, Muscarinic acetylcholine receptor M2 (Homo sapiens) (UniProt P08172).
T1 sequence (whole entry): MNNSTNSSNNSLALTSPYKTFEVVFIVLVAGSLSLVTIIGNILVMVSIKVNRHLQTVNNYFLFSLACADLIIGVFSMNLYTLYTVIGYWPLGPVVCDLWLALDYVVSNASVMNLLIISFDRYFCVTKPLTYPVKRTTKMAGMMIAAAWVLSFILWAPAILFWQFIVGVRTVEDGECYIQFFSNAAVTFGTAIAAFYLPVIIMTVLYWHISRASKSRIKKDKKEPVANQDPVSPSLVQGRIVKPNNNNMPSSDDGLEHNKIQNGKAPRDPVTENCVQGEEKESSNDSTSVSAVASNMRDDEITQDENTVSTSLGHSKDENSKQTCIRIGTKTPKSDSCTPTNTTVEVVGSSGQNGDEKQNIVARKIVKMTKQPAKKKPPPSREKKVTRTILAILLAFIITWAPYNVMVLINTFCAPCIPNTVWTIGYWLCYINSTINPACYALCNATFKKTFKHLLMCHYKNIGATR
Briefly: Inhibition of muscarinic M2 receptor (unknown origin) at 10 uM relative to control.

Data set [2] in a line: Tlast in CD1 mouse at 10 mg/kg, po administered as single dose measured after 24 hrs by LC-MS/MS analysis. It counts as ADME, organism-based. As to conditions: in vivo.
A short description of data set [3]: AUC(0 to t) in CD1 mouse at 1 mg/kg, iv administered as single dose measured after 24 hrs by LC-MS/MS analysis. It counts as ADME, organism-based. Also on record: time 24 hrs, dose 1 mg/kg, route iv. As to conditions: in vivo.
Data set [4] can be described thus: Toxicity in Balb/c nude mouse allografted with mouse BaF3 cells harboring EGFR L858R/C797S mutant assessed as change in body weight at 10 mg/kg, po administered twice daily for 20 days. It counts as organism-based. As to conditions: in vivo, 480 h, time 20 day.
The target in the next data set is T2, Adenosine receptor A3 (Homo sapiens, UniProt P0DMS8).
T2 sequence (P0DMS8 whole entry): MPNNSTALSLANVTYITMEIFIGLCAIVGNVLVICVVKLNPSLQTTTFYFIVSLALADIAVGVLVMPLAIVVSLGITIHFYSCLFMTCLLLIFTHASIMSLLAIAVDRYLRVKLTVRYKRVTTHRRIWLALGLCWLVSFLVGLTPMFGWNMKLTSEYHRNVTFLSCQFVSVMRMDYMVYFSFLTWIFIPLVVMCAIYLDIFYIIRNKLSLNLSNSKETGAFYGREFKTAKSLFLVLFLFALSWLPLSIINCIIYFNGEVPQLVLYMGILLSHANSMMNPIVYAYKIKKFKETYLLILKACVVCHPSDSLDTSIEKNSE
The data set is described as follows: Inhibition of adenosine A3 receptor (unknown origin).

Data set [5] deals with NCI-H1975. Briefly: Antitumor activity against human NCI-H1975 cells harboring EGFR L858R/T790M mutant xenografted in Balb/c nude mouse assessed as in tumor growth inhibition at 10 mg/kg, po administered twice daily measured after 14 days. The format is functional. As to conditions: NCI-H1975, 336 h, time 14 day, read-out: TGI.
In data set [6] the target is T3, Angiotensin-converting enzyme (Homo sapiens, UniProt P12821). Briefly: Inhibition of angiotensin-converting enzyme (unknown origin).
For data set [7], the system named is NCI-H1975. Briefly: Antitumor activity against human NCI-H1975 cells harboring EGFR L858R/T790M mutant xenografted in Balb/c nude mouse assessed as in tumor growth inhibition at 10 mg/kg, po administered once daily measured after 14 days in presence of osimertinib. It counts as functional. As to conditions: NCI-H1975, 336 h, time 14 day, read-out: TGI. (Xenograft models place foreign cells or tissue in a host animal.)

The target in data set [8] is T3, Angiotensin-converting enzyme. Briefly: Inhibition of angiotensin converting enzyme (unknown origin) at 10 uM relative to control.
A short description of data set [9]: Terminal half life in CD1 mouse at 1 mg/kg, iv administered as single dose measured after 24 hrs by LC-MS/MS analysis. As to conditions: in vivo, read-out: beta t1/2 (converted). It counts as ADME, organism-based.
The subject of the next data set is BaF3. The data set is described as follows: Antitumor activity against mouse BaF3 cells harboring EGFR L858R/C797S mutant allografted in Balb/c nude mouse assessed as in tumor growth inhibition at 10 mg/kg, po administered twice daily measured on day 20. It counts as functional. As to conditions: BaF3, 480 h, time 20 day, read-out: TGI.
Data set [10] can be described thus: Tmax in CD1 mouse at 10 mg/kg, po administered as single dose measured after 24 hrs by LC-MS/MS analysis. As to conditions: in vivo. It counts as ADME, organism-based.
A further data set relates to NCI-H292. Briefly: Antiproliferative activity against human NCI-H292 cells assessed as cell growth inhibition. It counts as functional.

T3 sequence (P12821 whole entry): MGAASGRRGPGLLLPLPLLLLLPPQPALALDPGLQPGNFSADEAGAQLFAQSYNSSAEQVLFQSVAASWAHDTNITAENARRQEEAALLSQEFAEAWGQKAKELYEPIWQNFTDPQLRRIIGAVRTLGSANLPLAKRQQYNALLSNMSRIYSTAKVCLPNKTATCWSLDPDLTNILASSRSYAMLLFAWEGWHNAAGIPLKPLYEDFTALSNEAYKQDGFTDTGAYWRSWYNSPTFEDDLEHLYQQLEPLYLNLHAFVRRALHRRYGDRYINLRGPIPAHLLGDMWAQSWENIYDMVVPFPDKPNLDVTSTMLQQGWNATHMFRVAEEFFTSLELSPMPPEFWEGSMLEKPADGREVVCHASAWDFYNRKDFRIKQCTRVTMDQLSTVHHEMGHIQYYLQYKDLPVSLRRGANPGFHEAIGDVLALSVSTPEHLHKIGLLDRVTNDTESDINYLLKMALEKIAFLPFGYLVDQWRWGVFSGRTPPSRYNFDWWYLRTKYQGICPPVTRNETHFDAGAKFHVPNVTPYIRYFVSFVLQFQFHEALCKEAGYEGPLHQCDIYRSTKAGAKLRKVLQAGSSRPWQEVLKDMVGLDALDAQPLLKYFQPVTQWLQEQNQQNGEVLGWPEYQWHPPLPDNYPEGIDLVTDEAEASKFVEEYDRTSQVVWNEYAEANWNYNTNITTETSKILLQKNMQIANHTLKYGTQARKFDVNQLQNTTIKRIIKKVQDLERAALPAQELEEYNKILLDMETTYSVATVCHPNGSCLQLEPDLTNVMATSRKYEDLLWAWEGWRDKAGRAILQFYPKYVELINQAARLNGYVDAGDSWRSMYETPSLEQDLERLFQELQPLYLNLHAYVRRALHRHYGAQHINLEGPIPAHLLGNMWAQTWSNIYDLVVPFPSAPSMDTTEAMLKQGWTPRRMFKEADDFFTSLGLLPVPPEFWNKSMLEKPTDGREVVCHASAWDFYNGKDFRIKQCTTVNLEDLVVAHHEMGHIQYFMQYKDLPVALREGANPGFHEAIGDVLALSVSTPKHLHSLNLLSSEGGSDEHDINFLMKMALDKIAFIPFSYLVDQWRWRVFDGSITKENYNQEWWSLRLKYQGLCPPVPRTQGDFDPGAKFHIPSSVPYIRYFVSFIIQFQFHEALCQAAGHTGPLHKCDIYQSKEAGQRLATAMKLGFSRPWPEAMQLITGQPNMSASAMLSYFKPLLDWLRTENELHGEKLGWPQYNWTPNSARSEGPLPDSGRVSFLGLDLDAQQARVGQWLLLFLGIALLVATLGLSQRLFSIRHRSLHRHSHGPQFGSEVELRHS
D(2) dopamine receptor, sequence (P14416 whole entry): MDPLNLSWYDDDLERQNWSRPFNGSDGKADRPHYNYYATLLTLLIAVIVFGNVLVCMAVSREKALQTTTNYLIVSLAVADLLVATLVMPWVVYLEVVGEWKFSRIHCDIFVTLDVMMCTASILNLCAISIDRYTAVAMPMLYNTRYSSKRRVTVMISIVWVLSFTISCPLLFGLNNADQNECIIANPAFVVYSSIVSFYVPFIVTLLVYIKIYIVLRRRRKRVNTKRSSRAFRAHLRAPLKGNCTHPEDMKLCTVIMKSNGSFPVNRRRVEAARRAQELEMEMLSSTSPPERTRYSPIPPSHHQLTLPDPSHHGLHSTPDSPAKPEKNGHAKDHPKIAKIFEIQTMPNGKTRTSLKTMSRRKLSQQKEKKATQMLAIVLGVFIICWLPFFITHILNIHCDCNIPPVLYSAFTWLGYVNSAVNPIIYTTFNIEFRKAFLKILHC

What is called inhibition is the change of the read-out against control, counted positive when it falls. In general, AUC(0-t) refers to the area under the concentration-time curve up to a stated or last time point. The low end stands for less exposure, the high end for more exposure. Broadly, the IC50 is the concentration needed to halve the response being measured. Low readings indicate greater potency in that assay, high ones weaker potency in that assay. The Tmax is the time from dosing to the highest level. Broadly, the GI50 is the concentration giving 50% growth inhibition. Turning to `Cc1c(C#Cc2ccc(CN3CCC(CO)CC3)cc2)cc(C(F)F)c2cn(C(C(=O)Nc3nccs3)c3ncn4c3CCC43CC3)nc12` (centres undefined), the inhibition was 98% on D(2) dopamine receptor, 91% in data set [1] and 96% in data set [8]. In data set [2], the Tlast amounted to 24 h. The AUC(0-t) at 24 h in [3] stood at 803 ng·h/mL. In addition, the Activity entry in data set [4] is “Non-Toxic”. In addition, the IC50 on Adenosine receptor A3 is 200 nM; in [6] it was greater than 3000 nM. For the same molecule, the inhibition in vivo at 10 mg/kg with NCI-H1975 [5] amounted to 69%; with NCI-H1975 [7], 100%; in the data set on BaF3, 70%. Moreover, the half-life in [9] is 6.6 h. Besides, the Tmax in data set [10] came to 5 h. In addition, in the data set with NCI-H292, the 50% growth inhibitory concentration (GI50) was found to be 350 nM.
